Assay [1] concerns Middle East respiratory syndrome-related coronavirus. Description: Antiviral activity against MERS-CoV infected in human Huh-7 cells assessed as reduction of viral growth. Format: functional, organism-based.
For assay [2], the system named is SARS-CoV-2. The assay can be described thus: microbe, parasite or virus in culture. Conditions: Severe acute respiratory syndrome coronavirus 2.
Assay [3] is described as follows: Binding affinity to HCoV-NL63 MPro assessed as inhibition constant. Also noted: species or system Human coronavirus NL63.
A further assay deals with Human coronavirus 229E. The assay can be described thus: microbe, parasite or virus in culture. As to conditions: MRC5.
In assay [4] the test system is Middle East respiratory syndrome-related coronavirus. Format: functional, organism-based, Vero E6. As to conditions: Vero C1008.
Assay [5] shares this test system. Description: Antiviral activity against MERS-CoV assessed as inhibition of viral growth by cell-cell fusion assay. Format: functional, organism-based.
Assay [6] concerns the target Transmembrane protease serine 2 (Homo sapiens) (UniProt O15393). The assay can be described thus: Binding affinity to TMPRSS2 (unknown origin) assessed as inhibition constant by fluorescence-based assay.
The test system of assay [7] is Middle East respiratory syndrome-related coronavirus. Format: functional, organism-based, Vero E6. As to conditions: Vero C1008. The source holds these as a separate data set.
Assay [8] has the same test system. The class given is functional, organism-based. Conditions: Calu-3.
A further assay addresses Procathepsin L (Homo sapiens, UniProt P07711). Description: Inhibition of recombinant cathepsin L (unknown origin).
Assay [9] deals with SARS-CoV-2. Format: functional, organism-based. Conditions: Severe acute respiratory syndrome coronavirus 2, HPAEpiC.
The test system of assay [10] is SARS-CoV-2. The class given is functional, organism-based. As to conditions: Severe acute respiratory syndrome coronavirus 2, Huh-7.
A further assay concerns Human coronavirus OC43. Description: Antiviral activity against HCoV-OC43 infected in human Huh-7 cells assessed as reduction of viral growth. As to conditions: Betacoronavirus 1, Huh-7. The class given is functional, organism-based.

Square brackets hold non-standard residues; d marks the D form. Peptide text beside a SMILES is read from it. βAla = NCCC(=O)O

Procathepsin L, sequence (P07711 whole entry): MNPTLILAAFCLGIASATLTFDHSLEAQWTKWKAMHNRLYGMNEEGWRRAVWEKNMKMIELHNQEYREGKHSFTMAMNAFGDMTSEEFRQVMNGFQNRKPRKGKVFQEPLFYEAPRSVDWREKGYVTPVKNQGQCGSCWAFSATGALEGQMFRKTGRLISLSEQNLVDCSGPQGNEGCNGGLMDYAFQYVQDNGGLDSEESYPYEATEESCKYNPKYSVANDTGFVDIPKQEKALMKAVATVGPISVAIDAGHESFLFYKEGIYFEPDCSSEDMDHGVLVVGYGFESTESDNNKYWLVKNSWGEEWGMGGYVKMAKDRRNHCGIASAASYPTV
Transmembrane protease serine 2 (Homo sapiens), sequence (O15393 1-255 limits assumed): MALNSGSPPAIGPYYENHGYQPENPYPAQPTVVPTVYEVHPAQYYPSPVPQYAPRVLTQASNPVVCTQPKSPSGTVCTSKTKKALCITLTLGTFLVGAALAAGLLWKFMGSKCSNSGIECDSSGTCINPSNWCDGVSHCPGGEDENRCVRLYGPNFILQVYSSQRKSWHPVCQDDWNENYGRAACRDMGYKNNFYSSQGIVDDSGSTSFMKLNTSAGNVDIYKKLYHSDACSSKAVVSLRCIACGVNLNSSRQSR
Transmembrane protease serine 2 (Homo sapiens), sequence (O15393 256-492 limits assumed): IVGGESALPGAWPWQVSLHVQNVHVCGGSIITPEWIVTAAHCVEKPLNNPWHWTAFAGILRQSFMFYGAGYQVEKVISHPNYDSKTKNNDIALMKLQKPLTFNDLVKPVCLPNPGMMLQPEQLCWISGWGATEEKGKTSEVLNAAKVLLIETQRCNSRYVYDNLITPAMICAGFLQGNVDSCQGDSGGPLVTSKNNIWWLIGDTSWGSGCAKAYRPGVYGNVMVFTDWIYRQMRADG

As a reminder, the EC50 is the concentration needed to bring the measured effect to its halfway point. In the case of `CC[C@H](C)[C@H](N)C(=O)N[C@@H](CCC(=O)O)C(=O)N[C@@H](CCC(=O)O)C(=O)N[C@H](C(=O)N[C@@H](CO)C(=O)N[C@@H](CCCCN)C(=O)N[C@@H](CCCCN)C(=O)N[C@H](C(=O)N[C@@H](CCC(=O)O)C(=O)N[C@@H](CCC(=O)O)C(=O)N[C@H](C(=O)N[C@@H](CO)C(=O)N[C@@H](CCCCN)C(=O)N[C@@H](CCCCN)C(=O)N[C@H](C(=O)N[C@@H](CCC(=O)O)C(=O)N[C@@H](CCC(=O)O)C(=O)N[C@H](C(=O)N[C@@H](CO)C(=O)N[C@@H](CCCCN)C(=O)N[C@@H](CCCCN)C(=O)N[C@H](C(=O)N[C@@H](CCC(=O)O)C(=O)N[C@@H](CCC(=O)O)C(=O)N[C@H](C(=O)N[C@@H](CO)C(=O)N[C@@H](CCCCN)C(=O)N[C@@H](CCCCN)C(=O)N[C@H](C(=O)N[C@@H](CCC(=O)O)C(=O)N[C@@H](CCC(=O)O)C(=O)N[C@H](C(=O)N[C@@H](CO)C(=O)N[C@@H](CCCCN)C(=O)N[C@@H](CCCCN)C(=O)NCCC(=O)N[C@@H](CCCCN)C(=O)O)[C@@H](C)CC)[C@@H](C)CC)[C@@H](C)CC)[C@@H](C)CC)[C@@H](C)CC)[C@@H](C)CC)[C@@H](C)CC)[C@@H](C)CC)[C@@H](C)CC` (H-IEEISKKIEEISKKIEEISKKIEEISKKIEEISKK[βAla]K-OH), the EC50 in assay [1] stood at 100 nM. Usually IC50 stands for the midpoint of a concentration-inhibition curve. In the assay on SARS-CoV-2 [2], `CC(=O)N[C@@H]1[C@H](Oc2c3cc4cc2Oc2ccc(cc2Cl)[C@@H](O[C@@H]2O[C@@H](CO)[C@@H](O)[C@H](O)[C@@H]2NC(C)=O)[C@@H]2NC(=O)[C@H](NC(=O)[C@@H]4NC(=O)[C@H]4NC(=O)[C@@H](Cc5ccc(c(Cl)c5)O3)NC(=O)[C@H](N)c3ccc(O)c(c3)Oc3cc(O)cc4c3)c3ccc(O)c(c3)-c3c(O[C@H]4O[C@H](CO)[C@@H](O)[C@@H](O)[C@@H]4O)cc(O)cc3[C@@H](C(=O)O)NC2=O)O[C@@H](CO)[C@@H](O)[C@@H]1O` showed an IC50 of 1600 nM. Broadly, the Ki is the equilibrium dissociation constant of an inhibitor or competing ligand from its target. Take `Cc1cc(C(=O)N[C@@H](C)C(=O)N[C@H](C(=O)N[C@@H](CC(C)C)C(=O)N[C@H](/C=C/C(=O)OCc2ccccc2)C[C@@H]2CCNC2=O)C(C)C)no1`: in assay [3], the inhibition constant (Ki) came to 11300 nM. This compound also had a concentration for half-maximal inhibition (IC50) in the assay with Human coronavirus 229E of 140 nM. For `CC[C@H](C)[C@H](NC(=O)[C@H](Cc1ccc(O)cc1)NC(=O)[C@H](CO)NC(=O)[C@H](CCC(=O)O)NC(=O)[C@H](CC(N)=O)NC(=O)[C@H](CC(C)C)NC(=O)[C@H](C)NC(=O)[C@H](CCCCN)NC(=O)[C@@H](NC(=O)[C@@H](NC(=O)[C@H](CCC(N)=O)NC(=O)[C@H](CCC(N)=O)NC(=O)[C@H](CC(C)C)NC(=O)[C@H](CO)NC(=O)[C@H](CC(C)C)NC(=O)[C@H](CCSC)NC(=O)[C@H](CCC(=O)O)NC(=O)[C@H](Cc1ccc(O)cc1)NC(=O)[C@@H](NC(=O)[C@H](CC(C)C)NC(=O)[C@H](CC(=O)O)NC(=O)[C@H](CC(C)C)NC(=O)[C@H](CC(C)C)NC(=O)[C@@H](NC(=O)[C@@H](NC(=O)[C@H](CC(N)=O)NC(=O)[C@@H](NC(=O)[C@H](CCC(N)=O)NC(=O)[C@@H](NC(=O)[C@H](CC(C)C)NC(=O)[C@@H](N)CO)[C@@H](C)O)[C@@H](C)CC)[C@@H](C)O)[C@@H](C)O)[C@@H](C)O)C(C)C)C(C)C)C(=O)N[C@@H](CC(=O)O)C(=O)N[C@@H](CC(C)C)C(=O)N[C@@H](CCCCN)C(=O)N[C@@H](CCCCN)C(=O)N[C@@H](CCC(=O)O)C(=O)N[C@@H](CC(C)C)C(=O)O`, the 50% inhibitory concentration (IC50) in assay [4] amounted to 600 nM; in [5], 500 nM. With `N=C(N)c1cccc(C[C@H](NS(=O)(=O)c2cccc(-c3ccc(Cl)cc3Cl)c2)C(=O)N2CCC(CCN)CC2)c1`, the K in assay [6] is 0.9 nM. Consider `CC(C)C[C@H](NC(=O)[C@H](CCC(=O)O)NC(=O)[C@H](CCC(=O)O)NC(=O)[C@H](CC(C)C)NC(=O)[C@H](CCCCN)NC(=O)[C@H](CCCCN)NC(=O)[C@H](CO)NC(=O)[C@H](CC(C)C)NC(=O)[C@H](CCC(=O)O)NC(=O)[C@H](CCC(=O)O)NC(=O)[C@H](CC(C)C)NC(=O)[C@H](CCCCN)NC(=O)[C@H](CCCCN)NC(=O)[C@H](CO)NC(=O)[C@H](CC(C)C)NC(=O)[C@H](CCC(=O)O)NC(=O)[C@H](CCC(=O)O)NC(=O)[C@H](CC(C)C)NC(=O)[C@H](CCCCN)NC(=O)[C@H](CCCCN)NC(=O)[C@H](CO)NC(=O)[C@H](CC(C)C)NC(=O)[C@H](CCC(=O)O)NC(=O)[C@H](CCC(=O)O)NC(=O)[C@H](CC(C)C)NC(=O)[C@H](CCCCN)NC(=O)[C@H](CCCCN)NC(=O)[C@H](CO)NC(=O)[C@H](CC(C)C)NC(=O)[C@H](CCC(=O)O)NC(=O)[C@H](CCC(=O)O)NC(=O)[C@@H](N)CC(C)C)C(=O)N[C@@H](CO)C(=O)N[C@@H](CCCCN)C(=O)N[C@@H](CCCCN)C(=O)NCCC(=O)N[C@@H](CCCCN)C(=O)O` (H-LEELSKKLEELSKKLEELSKKLEELSKKLEELSKK[βAla]K-OH), for which the concentration for a half-maximal effect (EC50) in assay [1] turned out to be 240 nM. With `CC[C@H](C)[C@H](NC(=O)[C@H](Cc1ccc(O)cc1)NC(=O)[C@H](CO)NC(=O)[C@H](CCC(=O)O)NC(=O)[C@H](CCC(=O)O)NC(=O)[C@H](CC(C)C)NC(=O)[C@H](CCCCN)NC(=O)[C@H](CCCCN)NC(=O)[C@@H](NC(=O)[C@@H](NC(=O)[C@H](CCC(=O)O)NC(=O)[C@H](CCC(=O)O)NC(=O)[C@H](CC(C)C)NC(=O)[C@H](CCCCN)NC(=O)[C@H](CCCCN)NC(=O)[C@H](CCSC)NC(=O)[C@H](CCC(=O)O)NC(=O)[C@H](Cc1ccc(O)cc1)NC(=O)[C@H](CCC(=O)O)NC(=O)[C@H](CC(C)C)NC(=O)[C@H](CC(=O)O)NC(=O)[C@H](CC(C)C)NC(=O)[C@H](CC(C)C)NC(=O)[C@@H](NC(=O)[C@@H](NC(=O)[C@H](CC(N)=O)NC(=O)[C@@H](NC(=O)[C@H](CCC(N)=O)NC(=O)[C@@H](NC(=O)[C@H](CC(C)C)NC(=O)[C@@H](N)CO)[C@@H](C)O)[C@@H](C)CC)[C@@H](C)O)[C@@H](C)O)C(C)C)C(C)C)C(=O)N[C@@H](CC(=O)O)C(=O)N[C@@H](CC(C)C)C(=O)N[C@@H](CCCCN)C(=O)N[C@@H](CCC(=O)O)C(=O)N[C@@H](CC(C)C)C(=O)O`, the IC50 in assay [7] and in assay [8] was 550 nM each time. On to `CCOC(=O)[C@H]1OC1C(=O)N[C@@H](CC(C)C)C(=O)NCCC(C)C` (some centres undefined), for which the IC50 at Procathepsin L amounted to 180 nM. For the compound `CC1(C)[C@@H]2[C@@H](C(=O)N[C@H](C=O)C[C@@H]3CCNC3=O)N(C(=O)COc3ccc(OC(F)(F)F)cc3)C[C@@H]21`, the EC50 in the assay on SARS-CoV-2 [9] stood at 1.2 nM; with SARS-CoV-2 [10], 35.3 nM. Consider `COc1cccc2[nH]c(C(=O)N[C@@H](CC(C)C)C(=O)N[C@@H](C[C@@H]3CCCNC3=O)C(=O)COC(=O)c3c(C)cc(C)nc3C)cc12`, for which the EC50 in the assay with Human coronavirus OC43 was determined as 90 nM.

The values above are taken from ChEMBL document CHEMBL5316353, “Antitarget, Anti-SARS-CoV-2 Leads, Drugs, and the Drug Discovery-Genetics Alliance Perspective” (J Med Chem, 2023).
